Data published in patent US20240059703A1 (AMGEN INC., priority 2021, published 2024).

Experiments:
KRAS G12C = KRAS G12C (Homo sapiens (Human), UniProt P01116, C118A/G12C); assay: 2 h coupled exchange assay; assay type: biochemical; settings: Avg 2 h Coupled exchange IC50, 2 h compound pre-incubation
Protocol: The term “2 h coupled exchange assay” or “20 h coupled exchange assay” as used herein refers to the assay described in the Section entitled “BIOLOGICAL EVALUATION.”

[1] = system: MIA PaCa-2 (human pancreatic carcinoma) cells; assay: Cell Viability Assay (CellTiter-Glo), MIA PaCa-2; assay type: cell-based
Protocol: Serially-diluted compound or DMSO was added to the cells, and plates were incubated at 37° C., 5% CO2 for 72 h. Cell viability was measured using a CellTiter-Glo® Luminescent Cell Viability Assay kit (Promega) according to the manufacturer's protocol. The luminescence signal of treated samples was normalized to DMSO control, and data were analyzed using a 4-parameter logistic model to calculate IC50 values.

[2] = system: A549 (human lung carcinoma) cells; assay: Cell Viability Assay (CellTiter-Glo), A549; assay type: cell-based
Method in brief: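 MIA PaCa-2 or A549 cells in RPMI 1640 with 10% FBS were seeded at 1.67E+04 cells/mL and incubated overnight. Serially diluted compound was then added for 72 h at 37° C, 5% CO2. Viability read by CellTiter-Glo luminescence, normalized to DMSO, with IC50 from a 4-parameter logistic fit.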

[3] = SOS-mediated nucleotide exchange

Sequence of KRAS G12C (P01116 other isoform, or with tags, fused parts or gaps G12C/C118A): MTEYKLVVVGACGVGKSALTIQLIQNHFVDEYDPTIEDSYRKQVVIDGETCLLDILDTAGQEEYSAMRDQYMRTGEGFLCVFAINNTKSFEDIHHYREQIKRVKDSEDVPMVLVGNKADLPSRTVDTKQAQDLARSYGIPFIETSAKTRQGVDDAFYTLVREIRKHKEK

Structure (SMILES) | IC50 (KRAS G12C) | IC50 ([1]; 72 h) | IC50 ([2]; 72 h) | IC50 ([2]; Homo sapiens, A549, 72 h) | IC50 (KRAS G12C; [3]) | IC50 ([1]; Homo sapiens, MIA PaCa-2, 72 h)
C=CC(=O)N1CC2(CCN(c3nc4c(c(-c5c(C)ccc6[nH]ncc56)c3C#N)CCC(C)(C)C4)[C@@H]2CF)C1 (stereo in doubt) [Example 13-79, (M)-2-((5R)-5-(fluoromethyl)-2-(2-propenoyl)-2,6-diazaspiro[3.4]octan-6-yl)-7,7-dimethyl-4-(5-methyl-1H-indaazol-4-yl)-5,6,7,8-tetrahydro-3-quinolinecarbonitrile and (P)-((5S)-5-(fluoromethyl)-2-(2-propenoyl)-2,6-diazaspiro[3.4]octan-6-yl)-7,7-dimethyl-4-(5-methyl-1H-indazol-4-yl)-5,6,7,8-tetrahydro-3-quinolinecarbonitrile] | – | – | – | 7450 nM | 433 nM | 8240 nM
C=CC(=O)N1CC2(CCN(c3nc4c(c(-c5c(C)ccc6[nH]ncc56)c3C#N)CCC(C)(C)C4)[C@H]2CF)C1 (stereo in doubt) [Example 13-80, (M)-2-((5S)-5-(fluoromethyl)-2-(2-propenoyl)-2,6-diazaspiro[3.4]octan-6-yl)-7,7-dimethyl-4-(5-methyl-1H-indazol-4-yl)-5,6,7,8-tetrahydro-3-quinolinecarbonitrile and (P)-2-((5R)-5-(fluoromethyl)-2-(2-propenoyl)-2,6-diazaspiro[3.4]octan-6-yl)-7,7-dimethyl-4-(5-methyl-1H-indazol-4-yl)-5,6,7,8-tetrahydro-3-quinolinecarbonitrile] | – | – | – | > 5000 nM | 45 nM | 952 nM
C=CC(=O)N1CC2(CCN(c3nc4c(c(-c5cc(O)cc6ccccc56)n3)CCCC4)C2)C1 [Example 1-1, 1-(6-(4-(3-hydroxynaphthalen-1-yl)-5,6,7,8-tetrahydroquinazolin-2-yl)-2,6-diazaspiro[3.4]octan-2-yl)prop-2-en-1-one] | – | – | – | > 5000 nM | 431 nM | > 5000 nM
C=CC(=O)N1CC2(CCN(c3cc4ccccc4c(-c4c(C)ccc5[nH]ncc45)c3C#N)C2)C1 [Example 1-2, 3-(2-acryloyl-2,6-diazaspiro[3.4]octan-6-yl)-1-(5-methyl-1H-indazol-4-yl)-2-naphthonitrile] | – | – | – | 3710 nM | 158 nM | 580 nM
C=CC(=O)N1CC2(CCN(c3nc4c(c(-c5c(C)ccc6[nH]ncc56)c3C#N)CCC4)C2)C1 [Example 1-3, 4-(5-methyl-1H-indazol-4-yl)-2-(2-(2-propenoyl)-2,6-diazaspiro[3.4]octan-6-yl)-6,7-dihydro-5H-cyclopenta[b]pyridine-3-carbonitrile] | – | – | – | 7420 nM | 154 nM | 847 nM
C=CC(=O)N1CC2(CCN(c3nc4c(F)cccc4c(-c4c(C)ccc5[nH]ncc45)c3C#N)C2)C1 [Example 1-4, 8-fluoro-4-(5-methyl-1H-indazol-4-yl)-2-(2-(2-propenoyl)-2,6-diazaspiro[3.4]octan-6-yl)-3-quinolinecarbonitrile] | – | – | – | 4940 nM | 290 nM | 1390 nM
C=CC(=O)N1CC2(CCN(c3cn4ccnc4c(-c4c(C)ccc5[nH]ncc45)c3C#N)C2)C1 [Example 1-5] | – | – | – | 50000 nM | 520 nM | 1630 nM
C=CC(=O)N1CC2(CCN(c3nc4c(C)cccc4c(-c4c(C)ccc5[nH]ncc45)c3C#N)C2)C1 [Example 1-6, 8-methyl-4-(5-methyl-1H-indazol-4-yl)-2-(2-(2-propenoyl)-2,6-diazaspiro[3.4]octan-6-yl)-3-quinolinecarbonitrile] | – | – | – | 6440 nM | 1890 nM | 1140 nM
C=CC(=O)N1CC2(CCN(c3nc4c(c(-c5cccc6cccc(C)c56)n3)CCCC4)C2)C1 [Example 1-7, 1-(6-(4-(8-methyl-1-naphthalenyl)-5,6,7,8-tetrahydro-2-quinazolinyl)-2,6-diazaspiro[3,4]octan-2-yl)-2-propen-1-one] | – | – | – | > 5000 nM | 997 nM | > 5000 nM
C=CC(=O)N1CC2(CCN(c3nc4c(c(-c5cccc6cccc(Cl)c56)n3)CCCC4)C2)C1 [Example 1-9, 1-(6-(4-(8-chloro-1-naphthalenyl)-5,6,7,8-tetrahydro-2-quinazolinyl)-2,6-diazaspiro[3.4]octan-2-yl)-2-propen-1-one] | – | – | – | > 25000 nM | 4580 nM | 18100 nM
C=CC(=O)N1CC2(CCN(c3nc4c(c(-c5c(C)ccc6[nH]ncc56)n3)CCC(C)C4)C2)C1 (stereo not drawn) [Example 1-11, 1-(6-((7)-7-methyl-4-(5-methyl-1H-indazol-4-yl)-5,6,7,8-tetrahydro-2-quinazolinyl)-2,6-diazaspiro[3.4]octan-2-yl)-2-propen-1-one] | – | – | – | > 5000 nM | 3090 nM | > 5000 nM
C=CC(=O)N1CC2(CCN(c3nc4c(c(-c5c(C)ccc6ccccc56)n3)CCCC4)C2)C1 [Example 1-12, 1-(6-(4-(2-methyl-1-naphthalenyl)-5,6,7,8-tetrahydro-2-quinazolinyl)-2,6-diazaspiro[3.4]octan-2-yl)-2-propen-1-one] | – | – | – | 7230 nM | 2590 nM | 5390 nM
C=CC(=O)N1CC2(C1)CN(c1nc3c(F)cccc3c(-c3c(C)ccc4[nH]ncc34)c1C#N)CC2F (stereo not drawn) [Example 1-13, 8-fluoro-2-((8)-8-fluoro-2-(2-propenoyl)-2,6-diazaspiro[3.4]octan-6-yl)-4-(5-methyl-1H-indazol-4-yl)-3-quinolinecarbonitrile] | – | – | – | 3120 nM | 601 nM | 1880 nM
C#CC(=O)N1CC2(CCN(c3nc4c(F)cccc4c(-c4c(C)ccc5[nH]ncc45)c3C#N)C2)C1 [Example 1-14, 8-fluoro-4-(5-methyl-1H-indazol-4-yl)-2-(2-(2-propynoyl)-2,6-diazaspiro[3.4]octan-6-yl)-3-quinolinecarbonitrile] | – | – | – | 1090 nM | 327 nM | 69 nM
C=CC(=O)N1CC2(CCN(c3nc(-c4c(C)ccc5[nH]ncc45)c4c(n3)C(C)CCC4)C2)C1 (stereo not drawn) [Example 1-15, 1-(6-((8)-8-methyl-4-(5-methyl-1H-indazol-4-yl)-5,6,7,8-tetrahydro-2-quinazolinyl)-2,6-diazaspiro[3.4]octan-2-yl)-2-propen-1-one] | – | – | – | > 5000 nM | 9060 nM | > 5000 nM

Continued, values first:

IC50 (KRAS G12C) | IC50 ([1]; 72 h) | IC50 ([2]; 72 h) | IC50 ([2]; Homo sapiens, A549, 72 h) | IC50 (KRAS G12C; [3]) | IC50 ([1]; Homo sapiens, MIA PaCa-2, 72 h) | Structure (SMILES)
196 nM | 480 nM | > 5000 nM | – | – | – | C=CC(=O)N1CC2(CCN(c3nc4c(c(-c5ncccc5C)c3C#N)CCC(c3scnc3C)=C4)C2)C1 (single isomer, unassigned) [Example 23-25, (P)-4-(3-methyl-2-pyridinyl)-7-(4-methyl-1,3-thiazol-5-yl)-2-(2-(2-propenoyl)-2,6-diazaspiro[3.4]octan-6-yl)-5,6-dihydro-3-quinolinecarbonitrile]
551 nM | 1690 nM | 13000 nM | – | – | – | C=CC(=O)N1CC2(CCN(c3nc4c(c(-c5ncccc5C)c3C#N)CCC(c3scnc3C)=C4)C2)C1 (single isomer, unassigned) [Example 23-26, (M)-4-(3-methyl-2-pyridinyl)-7-(4-methyl-1,3-thiazol-5-yl)-2-(2-(2-propenoyl)-2,6-diazaspiro[3.4]octan-6-yl)-5,6-dihydro-3-quinolinecarbonitrile]
325 nM | 2390 nM | – | 5770 nM | – | – | C=CC(=O)N1CC2(CCN(c3nc4c(c(-c5ccccc5Cl)c3C#N)CCC(c3scnc3C)=C4)C2)C1 (single isomer, unassigned) [Example 23-41, (M)-4-(2-chlorophenyl)-7-(4-methyl-1,3-thiazol-5-yl)-2-(2-(2-propenoyl)-2,6-diazaspiro[3.4]octan-6-yl)-5,6-dihydro-3-quinolinecarbonitrile]
66 nM | 561 nM | > 5000 nM | – | – | – | C=CC(=O)N1CC2(CCN(c3nc4c(c(-c5ccccc5Cl)c3C#N)CCC(c3scnc3C)=C4)C2)C1 (single isomer, unassigned) [Example 23-42, (P)-4-(2-chlorophenyl)-7-(4-methyl-1,3-thiazol-5-yl)-2-(2-(2-propenoyl)-2,6-diazaspiro[3.4]octan-6-yl)-5,6-dihydro-3-quinolinecarbonitrile]
38 nM | 1190 nM | – | > 5000 nM | – | – | C=CC(=O)N1CC2(CCN(c3nc4c(c(-c5c(O)cccc5F)c3C#N)CCC(c3scnc3C)=C4)C2)C1 (single isomer, unassigned) [Example 23-50, (P)-4-(2-fluoro-6-hydroxyphenyl)-7-(4-methyl-1,3-thiazol-5-yl)-2-(2-(2-propenoyl)-2,6-diazaspiro[3.4]octan-6-yl)-5,6-dihydro-3-quinolinecarbonitrile]
127000 nM | 6220 nM | 9640 nM | – | – | – | C=CC(=O)N1CC2(CCN(c3nc4c(c(-c5c(O)cccc5F)c3C#N)CCC(c3scnc3C)=C4)C2)C1 (single isomer, unassigned) [Example 23-51, (M)-4-(2-fluoro-6-hydroxyphenyl)-7-(4-methyl-1,3-thiazol-5-yl)-2-(2-(2-propenoyl)-2,6-diazaspiro[3.4]octan-6-yl)-5,6-dihydro-3-quinolinecarbonitrile]
– | – | – | 10400 nM | 91 nM | 569 nM | C=CC(=O)N1CC2(CCN(c3nc4c(c(-c5cc(O)ccc5C)c3C#N)[C@H]3CC[C@@H]4C3)C2)C1 (stereo in doubt) [Example 14-9, (1R,8S)-6-(5-hydroxy-2-methylphenyl)-4-(2-(2-propenoyl)-2,6-diazaspiro[3.4]octan-6-yl)-3-azatricyclo[6.2.1.0^2,7]undeca-2,4,6-triene-5-carbonitrile]
